In patent US8193224B2, “Medicinal composition for prevention or treatment of parasitic protozoan infection” (Fujifilm Corporation, priority 2004, dated 2012) one finds EC50 and Selective toxicity data, which are given here for eleven compounds.

Holding throughout (type): cell-based
Data set [1] concerns Rat derived-L6 cells (rat skeletal myoblast cell). The data set is described as follows: Growth inhibition test of rat L6 cells. Particulars: 72 hours. The protocol: (§1) Rat derived-L6 cells (rat skeletal myoblast cell) were used. As medium, RPMI1640 medium was supplemented so that L-glutamin (200 mM) is 1%, and fetal bovine serum 10%, and the medium was cultured under CO2 concentration 5%, at 37° C. The compounds of the present invention and the target drugs to be used in the test were dissolved in DMSO, to make a test solution of a predetermined concentration. Pre-culture was conducted and medium containing cells which have entered the logarithmic growth phase was taken to wells of a 96-well culture plate. Then, a test solution containing drug of a predetermined concentration or a drug-free DMSO was added. Test solutions were taken by duplicates. Culture plate was cultured for 72 hours in an incubator, to test the growth inhibition activity. Test was conducted as follows.
(§2) 10 μl of Alamar Blue aqueous solution was added to each well, and the resultant was further cultured for 2 hours. Next, the culture plate was placed on a fluorescent micro-plate reader (Spectramax Gemeni XS; US Molecular Device), radiated at an excited wavelength of 536 nm. Fluorescent intensity was measured at 588 nm, and residual rate of L6 cells of the test solution added group, and that of the control was calculated. Based on the cell residual rate obtained in the above, growth inhibition rate to L6 cells was calculated, to obtain a 50% growth inhibition concentration (EC50). Growth inhibition rate (%)={(C−A)/(B−A)}×100 A: primary cell count B: cell count of control, 3 days after C: cell count of wells added with a sample, 3 days after […]

The subject of data set [2] is Trypanosoma brucei rhodensiense (STIB 900 strain). The data set is described as follows: African trypanosome protozoa growth inhibition screening test. Particulars: read-out: 50% growth inhibiting concentration Trypanosoma brucei rhod. The protocol:
In the present example, protozoa of Trypanosoma brucei rhodensiense (STIB 900 strain), a trypamastigote living in blood stream, was used. The medium used in the experiment was a MEM medium which was sterilized with a filter and supplemented with 25 mM N-2-hydroxyethylpiperazine-2-ethansulfonic acid […]), 1 g/L glucose, 1% MEM non-essential amino acid, 0.2 mM 2-mercaptoethanol, 2 mM sodium pyruvate, 0.1 mM hypoxanthine, and 15% heat-treated horse serum. The protozoa was cultured in an atmosphere of CO2 concentration 5%, at a temperature of 37° C.
The compounds of the present invention to be used in the present test and the positive target drug (melarsoprol) were dissolved in DMSO to make a test solution of a predetermined concentration. A medium containing 8×10^3 protozoa, and a test solution containing a drug of a predetermined concentration or a drug-free DMSO were added to wells of a 96-well culture plate, and subsequently, medium was added so that the amount in each well becomes 100 μL. Test solutions were taken by duplicates. After culturing the culture plate for 72 hours in an incubator, growth inhibition activity was tested. Test was conducted as follows. 10 μL of Alamar Blue aqueous solution was added to each well, and the resultant was further cultured for 2 hours. Next, the culture plate was placed on a fluorescent micro-plate reader (Spectramax Gemeni XS; US Molecular Device), radiated at an excited wavelength of 536 nm. Fluorescent intensity was measured at 588 nm, to calculate the trypanosome protozoa infected rate of the test solution added-group, and of the control group. From the protozoan infection rate obtained in the above, growth inhibition rate was calculated with the following formula, to obtain a 50% growth inhibition concentration (EC50). Growth inhibition rate (%)={1−(b−a)/(c−a)}×100 a: early infection rate b: infection rate when test solution was added c: infection rate of the control

Data set [3] relates to Plasmodium falciparum K1 strain. Briefly: Chloroquine resistant-Plasmodium falciparum growth inhibition screening test. Particulars: for pEC50: chloroquine resistant K1 strain, 3H-hypoxanthine, 48 + 24 hours, read-out: 50% growth inhibition concentration P. falciparum K1; for Selective toxicity: chemotherapy index = EC50 rat L6 cells / EC50 chloroquine resistant P. falciparum. Here is the method: In the present example, protozoa of Plasmodium falciparum K1 strain was used. RPMI-1640 medium sterilized with a filter to which human serum was added to be 5%, was used in the experiment. Malarial parasites were cultured under 3% O2 concentration, 4% Co2 concentration, 93% N2 concentration, and at a temperature of 37° C.
The compounds of the present invention to be used in the present test and the positive target drug (chloroquine) were dissolved in DMSO to make a test solution of a predetermined concentration. Cultured malarial parasite infected-erythrocytes were collected by centrifugation, and diluted with non-infected erythrocyte so that the early infection rate is 0.15%. Hematocrit level at that time was 2.5%. 200 μL of malaria infected solution was added to wells of a 96-well culture plate, and adjusted by adding a test solution containing drug of a predetermined concentration or a drug-free DMSO. Test solutions were taken by duplicates. After culturing for 48 hours at 37° C., 0.5 μCi radioactive tritium (3H)-labeled hypoxanthine was added to each well. After further culturing for 24 hours under the same conditions, it was collected on a glass fiber filter and washed with distilled water. Radiation intensity was measured with a beta plate liquid scintillation counter (Wallac), and malarial parasite infection rates of the test solution added group and of the control group were calculated. Growth inhibition rate was calculated with the following formula based on the malarial parasite infection rate obtained in the above, to obtain a 50% growth inhibition concentration (EC50). Growth inhibition rate (%)={1−(b−a)/(c−a)}×100 a: early infection rate b: infection rate when test solution was added c: infection rate of the control

The nature of data set [4]: Growth inhibition test of rat L6 cells. The protocol:
as §1, §2

Data set [5] concerns Trypanosoma brucei rhodensiense (STIB 900 strain). Briefly: African trypanosome protozoa growth inhibition screening test. Conditions: chemotherapy index = EC50 rat L6 cells / EC50 African trypanosome protozoa.
Data set [6] relates to Trypanosoma cruzi (Tulahuen C2C4 strain). The data set is described as follows: American trypanosome protozoa growth inhibition screening test. Particulars: Tulahuen C2C4 strain in rat L6 cells, 96 hours, CPRG/Nonidet, read-out: 50% growth inhibition concentration Trypanosoma cruzi. Here is the method: In the present example, amastigote and trypomastigote infected with rat L6 cells of protozoa of Trypanosoma cruzi (Tulahuen C2C4 strain) were used. As medium used in the test, RPMI 1640 medium containing L6 cells was supplemented so that L-glutamine (200 mM) becomes 1%, fetal bovine serum becomes 10%, which was cultured under CO2 concentration 5%, at 37° C.
The compounds of the present invention to be used in the test and the positive target agent (benznidazole) were dissolved in DMSO to make a test solution of a predetermined concentration. A medium containing 5×10^3 protozoa was added to wells of a 96-well culture plate, and pre-cultured for 48 hours. After replacing the medium, test solution containing drug of a predetermined concentration or a drug-free DMSO was added. Test solutions were taken by duplicates. After culturing the culture plate in an incubator for 96 hours, growth inhibition activity was tested. Test was conducted as follows.
50 μL of CPRG/Nonidet was added to each well, and allowed to rest for 2 to 6 hours. Next, the culture plate was placed on a fluorescent micro-plate reader, and the absorbance was measured at 540 nm. Growth inhibition rate was calculated with the following formula based on the protozoan infection rate which was obtained by calculating trypanosome infection rate of the test solution added group and control group, to obtain a 50% growth inhibition concentration (EC50). Growth inhibition rate (%)={1−(b−a)/(c−a)}×100 a: early infection rate b: infection rate when test solution was added c: infection rate of the control

The test system of data set [7] is Leishmania donovani (MHOM/ET/67/L82 strain). Briefly: Leishmania protozoa growth inhibition screening test. Particulars: MHOM/ET/67/L82 strain amastigote, pH 5.4, 72 hours, Alamar Blue, read-out: 50% growth inhibition concentration Leishmania donovani. Here is the method: In the present example, Leishmania donovani (MHOM/ET/67/L82 strain) was used. Protozoa was subcultured in Syrian Golden hamster, from which an amastigote was obtained. In the experiment, SM medium supplemented with 10% heat-treated bovine fetal serum was used, which was adjusted to pH 5.4, and cultured in an atmosphere of 5% CO2 concentration, at 37° C.
The compounds of the present invention to be used in the present test and the positive target drug (miltefosine) were dissolved in DMSO to make a test solution of a predetermined concentration. After adding a medium containing a predetermined number of protozoa to wells of a 96-well culture plate and pre-treating, concentration of the amastigote was measured with CASY cell analysis system (Scharfe, Germany). Then, test solution containing a drug of a predetermined concentration or a drug-free DMSO was added. Test solutions were taken by duplicates. After culturing the culture plate for 72 hours in an incubator, growth inhibition activity was tested. Test was conducted as follows.
10 μL of Alamar Blue aqueous solution was added to each well, and the resultant was further cultured for 2 hours. Next, the culture plate was placed on a fluorescent micro-plate reader (Spectramax Gemeni XS; US Molecular Device), radiated at an excited wavelength of 536 nm. Fluorescent intensity was measured at 588 nm, and infection rate of leishmania protozoa of the test solution added-group and control was calculated, to obtain a 50% growth inhibition concentration (EC50). Growth inhibition rate (%)={1−(b−a)/(c−a)}×100 a: early infection rate b: infection rate when test solution was added c: infection rate of the control
Background: Resazurin is reduced to fluorescent resorufin, in cell work by metabolically active cells.

The mark [8] stands for this setting: Alamar Blue (Table 2), read-out: 50% growth inhibition concentration Cytotoxicity L6.
[9] abbreviates: Alamar Blue (Table 3), read-out: 50% growth inhibiting concentration Cytotoxicity L6.
Where [10] appears, read: STIB 900 strain, blood stream form, 72 hours, Alamar Blue.
The mark [11] stands for this setting: L6 cells (rat skeletal myoblast), Alamar Blue (Table 2), read-out: 50% growth inhibition concentration Cytotoxicity L6.
Setting [12] is: Trypanosoma brucei, STIB900, STIB 900 strain, blood stream form, 72 hours, Alamar Blue.

SMILES strings stand for the structures. pEC50: −log10 of the molar value. Read-outs that look alike come from different tables or passages of the source.

In the case of `CCn1c(=Cc2cccc[n+]2C)sc(=CC=C2Sc3ccccc3N2C)c1=O` [A-4], the pEC50 in data set [1] (setting [8]) is 4.12; in data set [1] (setting [9]), 4.12; in data set [2] (setting [10]), 6.39; in data set [3], 6.92.

For the compound `CCn1c(=O)/c(=C/C=C2\Sc3ccccc3N2C)s/c1=C\c1cccc[n+]1CCO` [A-5], the EC50 at 72 h in data set [4] (setting [11]) was determined as 42 µM. Besides, the pEC50 in data set [3] (Plasmodium falciparum, 72 h) is 6.57. The same compound displayed a Selective toxicity in data set [3] of 150.

`CCn1c(=O)/c(=C/C=C2\Sc3ccccc3N2C)s/c1=C\c1cccc[n+]1CCOCCOCCOC` [A-6]: the Selective toxicity in data set [5] stood at 340; in data set [3], 236. For the same compound, the EC50 at 72 h in data set [4] (setting [11]) came to 44 µM. Besides, the pEC50 in data set [2] (setting [12]) was 6.89; in data set [3] (Plasmodium falciparum, 72 h), 6.72.

In the case of `CCn1c(=Cc2oc3ccccc3[n+]2CC)sc(=CC=C2N(C)c3ccccc3C2(C)C)c1=O` [A-8], the pEC50 in data set [6] is 6.00; in data set [1] (setting [8]), 5.74; in data set [1] (setting [9]) it was 5.74; in data set [2] (setting [10]), 6.52; in data set [3] it was 7.85; in data set [7] it was 7.25.

For `CCn1c(=Cc2sc3c4ccccc4ccc3[n+]2CC)sc(=CC=C2SCCN2C)c1=O` [A-9], the pEC50 is 5.39 in data set [6]; 5.09 in data set [1] (setting [8]); 5.09 in data set [1] (setting [9]); 6.85 in data set [2] (setting [10]); 7.13 in data set [3]; 7.64 in data set [7].

Regarding `CCn1c(=O)/c(=C/C=C2\Sc3ccccc3N2C)s/c1=C\c1cccc[n+]1CCCCC(=O)O` [A-12], the Selective toxicity amounted to 19 in data set [5] and 84 in data set [3]. Further, the EC50 at 72 h in data set [4] (setting [11]) was 17 µM. The pEC50 is 6.05 in data set [2] (setting [12]) and 6.68 in data set [3] (Plasmodium falciparum, 72 h).

Consider `C=CCn1c(=Cc2oc3ccccc3[n+]2C)sc(=CC=C2Sc3ccccc3N2C)c1=O` [A-13], for which the pEC50 is 4.89 in data set [1] (setting [9]); 4.89 in data set [1] (Alamar Blue (Table 5), read-out: 50% growth inhibition concentration Cytotoxicity L6); 6.96 in data set [2] (setting [10]); 7.33 in data set [7].

For the compound `CCn1c(=Cc2cc[n+](CC)c3ccccc23)sc(=CC=C2C=Cc3ccccc3N2C)c1=O` [A-14], the pEC50 was 5.92 in data set [6]; 5.04 in data set [1] (setting [8]); 5.04 in data set [1] (setting [9]); 7.39 in data set [2] (setting [10]); 6.85 in data set [3]; 6.70 in data set [7].

With `O=C(Cn1ccnc1[N+](=O)[O-])NCc1ccccc1` [benznidazol, benznidazole, reference compound], in data set [6] (Trypanosoma cruzi), the pEC50 was 6.06.

`Nc1nc(N)nc(Nc2ccc([As]3SCC(CO)S3)cc2)n1` (centres unmarked) [melarsoprol, reference compound] registered a Selective toxicity in data set [5] of 1300. In data set [4] (setting [9]), the EC50 at 72 h turned out to be 7.8 µM. Moreover, the pEC50 in data set [2] (Trypanosoma brucei, STIB900, 72 h) was 8.22.

Take `CCCCCCCCCCCCCCCCOP(=O)([O-])OCC[N+](C)(C)C` [miltefosine, reference compound]: the pEC50 in data set [7] (Leishmania donovani) was 6.55.
